Measurements: US20250144067A1, “PERSONALIZED STARVATION THERAPY FOR CANCER” (Faeth Therapeutics, Inc., priority 2021, published 2025)
Like-named read-outs stand apart in the source and are kept apart here.

What was measured:
[1] = tested on: NCI-H292 lung cancer cells; assay: FDA drug screening, complete media vs cholesterol-free media with simvastatin (TABLE 2); type: cell-based, human
[2] = tested on: NCI-H292 lung cancer cells; assay: FDA drug screening, complete media vs cholesterol-free media without statin (TABLE 1); type: cell-based, human
[3] = NCI-H292 cells, FDA drug library screen, cholesterol-free media without statin
[4] = NCI-H292 cells, FDA drug library screen, complete media
[5] = NCI-H292 cells, drug in cholesterol-free media with simvastatin 0.04 μM
[6] = NCI-H292 cells, drug in complete media
[7] = complete media vs cholesterol-free media + simvastatin (0.04 μM), >0 enhanced anti-cancer activity, about 0 neutral, <0 antagonist
[8] = NCI-H292 cells, cholesterol-free media without statin, FDA drug library screen
[9] = NCI-H292 cells, complete media, FDA drug library screen
[10] = NCI-H292 cells, cholesterol-free media without statin
[11] = complete vs cholesterol-free media, greater than 0 enhanced anti-cancer activity, about 0 neutral, below 0 antagonists
[12] = NCI-H292 cells, FDA drug library screen, cholesterol-free media with simvastatin 0.04 μM
[13] = complete media minus cholesterol-free media + simvastatin, >0 enhanced anti-cancer activity, about 0 neutral, <0 antagonist
[14] = Complete minus Cholesterol-free, >0 enhanced anti-cancer activity, about 0 neutral, <0 antagonist
[15] = Complete minus Cholesterol-free, greater than 0 enhanced anti-cancer activity, about 0 neutral, below 0 antagonist
[16] = NCI-H292 cells, cholesterol-free media with simvastatin 0.04 μM, FDA drug library screen (TABLE 2)
[17] = NCI-H292 cells, complete media, FDA drug library screen (TABLE 2)
[18] = complete media minus cholesterol-free media + simvastatin (0.04 μM), >0 enhanced anti-cancer activity, about 0 neutral, <0 antagonist

In the case of `O=C([O-])CCSC[C@H]1O[C@@H]2O[C@H]3[C@H](O)[C@@H](O)[C@@H](O[C@H]4[C@H](O)[C@@H](O)[C@@H](O[C@H]5[C@H](O)[C@@H](O)[C@@H](O[C@H]6[C@H](O)[C@@H](O)[C@@H](O[C@H]7[C@H](O)[C@@H](O)[C@@H](O[C@H]8[C@H](O)[C@@H](O)[C@@H](O[C@H]9[C@H](O)C(O)[C@@H](O[C@H]1[C@H](O)[C@H]2O)O[C@@H]9CSCCC(=O)[O-])O[C@@H]8CSCCC(=O)[O-])O[C@@H]7CSCCC(=O)[O-])O[C@@H]6CSCCC(=O)[O-])O[C@@H]5CSCCC(=O)[O-])O[C@@H]4CSCCC(=O)[O-])O[C@@H]3CSCCC(=O)[O-].[Na+].[Na+].[Na+].[Na+].[Na+].[Na+].[Na+].[Na+]` (stereo partly drawn) [Sugammadex (sodium)], the “Cholesterol-free media + simvastatin (0.04 μM)” value ([1]; NCI-H292 cells, cholesterol-free media with simvastatin 0.04 μM, […]) is reported as 0.9061, the “Complete Media” value ([1]; NCI-H292 cells, complete media, […]) is reported as 0.9946 and the Difference ([1]; complete media minus cholesterol-free media + simvastatin, […]) is reported as 0.09. It also gave a Difference ([2]; Complete minus Cholesterol-free, […]) of −0.11, a Cholesterol-free [2, 3] of 1.596 and a Complete [2, 4] of 1.487.

With `CC1(C)[C@H](C(=O)O)N2C(=O)C[C@H]2S1(=O)=O` [Sulbactam] the “Cholesterol-free media + simvastatin (0.04 μM)” value [1] was 1.06, the “Complete Media” value [1] was 1.241 and the Difference [1] was 0.18. The Cholesterol-free [2] was 1.094, the Complete [2] was 1.056 and the Difference [2] was −0.04.

With `CC1(C)S[C@@H]2[C@H](NC(=O)C(c3ccccc3)S(=O)(=O)O)C(=O)N2[C@H]1C(=O)O` (stereo partly drawn) [Sulbenicillin (disodium)] the “Cholesterol-free media + simvastatin (0.04 μM)” value [1, 5] was 1.164, the “Complete Media” value [1, 6] was 0.9986 and the Difference [1, 7] was −0.17. For the same molecule, the Cholesterol-free [2, 8] was 0.8061, the Complete [2, 9] was 1.226 and the Difference ([2]; complete vs cholesterol-free media, >0 enhanced anti-cancer activity, about 0 neutral, <0 antagonist) was 0.42.

For `Nc1ccc(S(=O)(=O)NC(=O)c2ccccc2)cc1` [Sulfabenzamide], the “Cholesterol-free media + simvastatin (0.04 μM)” value [1, 5] was 1.231, the “Complete Media” value [1, 6] was 1.041 and the Difference [1, 7] was −0.19. The Cholesterol-free [2, 10] was 1.412, the Complete ([2]; NCI-H292 cells, complete media) was 1.023 and the Difference [2, 11] was −0.39.

For `NC(=O)NS(=O)(=O)c1ccc(N)cc1` [Sulfacarbamide], the “Cholesterol-free media + simvastatin (0.04 μM)” value [1, 12] was 0.9379, the “Complete Media” value [1, 4] was 1.144 and the Difference [1, 13] was 0.21. The Difference [2, 14] was 0.04, the Cholesterol-free [2, 8] was 0.9085 and the Complete [2, 9] was 0.9465.

In the case of `CC(=O)NS(=O)(=O)c1ccc(N)cc1` [Sulfacetamide (Sodium)], the “Cholesterol-free media + simvastatin (0.04 μM)” value [1, 12] is reported as 1.134, the “Complete Media” value [1, 4] is reported as 1.384 and the Difference [1, 13] is reported as 0.25. It also gave a Difference [2, 14] of 0.04, a Cholesterol-free [2, 8] of 0.8669 and a Complete [2, 9] of 0.9047.

In the case of `CC(=O)NS(=O)(=O)c1ccc(N)cc1` [Sulfacetamide], the “Cholesterol-free media + simvastatin (0.04 μM)” value [1, 12] is reported as 0.6778, the “Complete Media” value [1, 4] is reported as 0.8793 and the Difference [1, 13] is reported as 0.20. It also gave a Difference [2, 15] of −0.14, a Cholesterol-free [2, 3] of 1.146 and a Complete [2, 4] of 1.008.

With `Nc1ccc(S(=O)(=O)Nc2ccc(Cl)nn2)cc1` [Sulfachloropyridazine] the “Cholesterol-free media + simvastatin (0.04 μM)” value [1, 16] was 0.9751, the “Complete Media” value [1, 17] was 0.932 and the Difference [1, 18] was −0.04. The Difference [2, 15] was −0.17, the Cholesterol-free [2, 3] was 1.057 and the Complete [2, 4] was 0.8847.

In the case of `Nc1ccc(S(=O)(=O)Nc2ncccn2)cc1` [Sulfadiazine (sodium)], the “Cholesterol-free media + simvastatin (0.04 μM)” value [1, 5] is reported as 1.234, the “Complete Media” value [1, 6] is reported as 0.9756 and the Difference [1, 7] is reported as −0.26. It also gave a Difference [2, 15] of −0.12, a Cholesterol-free [2, 3] of 1.217 and a Complete [2, 4] of 1.095.

`Nc1ccc(S(=O)(=O)Nc2ncccn2)cc1` [Sulfadiazine] was tested, and the “Cholesterol-free media + simvastatin (0.04 μM)” value ([1]; NCI-H292 cells, cholesterol-free media with simvastatin 0.04 μM, cell growth value in FDA drug screen) was 1.499, the “Complete Media” value ([1]; NCI-H292 cells, complete media, cell growth value in FDA drug screen) was 1.555 and the Difference [1, 13] was 0.06. For the same molecule, the Cholesterol-free [2, 10] was 1.21, the Complete ([2]; NCI-H292 cells, complete media) was 0.7631 and the Difference [2, 11] was −0.45.

With `COc1cc(NS(=O)(=O)c2ccc(N)cc2)nc(OC)n1` [Sulfadimethoxine (sodium)] the “Cholesterol-free media + simvastatin (0.04 μM)” value ([1]; NCI-H292 cells, FDA library drug in cholesterol-free media with simvastatin 0.04 μM) was 1.876, the “Complete Media” value ([1]; NCI-H292 cells, FDA library drug in complete media) was 1.521 and the Difference [1, 7] was −0.35. The Difference [2, 14] was −0.30, the Cholesterol-free [2, 10] was 1.031 and the Complete ([2]; NCI-H292 cells, complete media) was 0.7288.

For `COc1cc(NS(=O)(=O)c2ccc(N)cc2)nc(OC)n1` [Sulfadimethoxine], the “Cholesterol-free media + simvastatin (0.04 μM)” value [1, 12] was 0.819, the “Complete Media” value [1, 4] was 0.9685 and the Difference [1, 13] was 0.15. For the same molecule, the Cholesterol-free [2, 10] was 1.234, the Complete ([2]; NCI-H292 cells, complete media) was 0.8763 and the Difference [2, 11] was −0.36.

With `COc1ncnc(NS(=O)(=O)c2ccc(N)cc2)c1OC` [Sulfadoxine] the “Cholesterol-free media + simvastatin (0.04 μM)” value [1, 16] was 1.1, the “Complete Media” value [1, 17] was 1.093 and the Difference [1, 18] was −0.01. For the same molecule, the Difference [2, 14] was −0.27, the Cholesterol-free [2, 10] was 1.26 and the Complete ([2]; NCI-H292 cells, complete media) was 0.986.

With `[H]/N=C(/N)NS(=O)(=O)c1ccc(N)cc1` [Sulfaguanidine] the “Cholesterol-free media + simvastatin (0.04 μM)” value [1, 5] was 1.092, the “Complete Media” value [1, 6] was 0.8866 and the Difference [1, 7] was −0.21. For the same molecule, the Difference [2, 14] was −0.24, the Cholesterol-free [2, 10] was 1.183 and the Complete ([2]; NCI-H292 cells, complete media) was 0.939.
